Columns and labels:
[1] = tested on: Iron Responsive Protein (IRP); experiment: RNA band shift (EMSA) with Iron Responsive Protein and Iron Responsive Element (specificity); format: binding; conditions: very high concentration, decreased specificity
hnRNP A18 RRM = molecular target: T1, hnRNP A18 RRM (Homo sapiens, UniProt Q14011); experiment: NMR HSQC/TROSY chemical shift perturbation screen; format: binding; conditions: 150 μM hnRNP A18, excess compound, 298 K
T1 construct: A18 RNA recognition motif (residues 1-92 of hnRNP A18 wildtype) was expressed and purified; 6x-His (N, cleaved yes); protein G B1 domain (GB1) (N, cleaved yes); made in house; host or cells: E. coli BLD21(DE3) (so in the source)
Description: The hnRNP A18 RRM samples used for compound screening via high field NMR spectroscopy using a series of single-quantum coherence (HSQC) experiments contained 0.1 to 0.2 mM ^15N-labeled hnRNP A18 RRM, ultrapure water, 10% D2O, 5% d6-DMSO and up to 5 mM of each of the forty compounds tested, as based on their solubility. All of the HSQC data were collected at 25° C. with a Bruker Avance 800 US2 NMR spectrometer (800.27 MHz, ^1H) equipped with pulsed-field gradients, four frequency channels, an automatic sample changer, and a TXI cryogenic probe. Backbone resonance assignments in the presence of compounds were achieved via compound titrations and monitoring chemical shift changes until solubility limits were reached (<5 mM compound). Data were processed with NMRPipe (35), and proton chemical shifts and their perturbations upon binding the various compounds were reported with respect to the H2O or HDO signal taken as 4.698 ppm relative to external TSP (0.0 ppm).

hnRNP A18 [2] = molecular target: T2, hnRNP A18 (Homo sapiens, UniProt Q14011); experiment: Fluorescence anisotropy competition binding of hnRNP A18 to fluorescein tagged RNA motif 1; parameters: recombinant full length His-hnRNP A18 incubated with biotinylated hnRNP A18 RNA motif 1; conditions: 25° C., 30 min, read-out: IC50, inhibition of hnRNP A18 binding to its cognate RNA
T2 sequence (Q14011 1-172): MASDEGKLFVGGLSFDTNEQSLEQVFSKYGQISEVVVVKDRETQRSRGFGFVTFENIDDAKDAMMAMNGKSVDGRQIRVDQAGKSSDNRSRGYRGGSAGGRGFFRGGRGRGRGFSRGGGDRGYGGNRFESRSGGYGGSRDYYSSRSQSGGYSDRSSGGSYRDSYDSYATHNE
Description: Quantitative assessments of hnRNP A18-RNA binding equilibria were performed using fluorescence anisotropy essentially as described (36). Briefly, binding reactions (100 μl) were assembled as described for RNA band shift (EMSAs) but in absence of glycerol and using fluorescein labeled rather than biotin labeled RNA substrates. Reactions were incubated at 25° C. for 30 min; preliminary kinetics runs verified that equilibrium was attained within this period. Subsequently, total reaction anisotropy (At) and fluorescence intensity were measured using a Beacon 2000 Fluorescence Polarization System (Panvera) equipped with a 490-nm excitation filter and a 535-nm emission filter. Drug-dependent changes in At were analyzed by nonlinear regression using the four parameter logistic equation (Eq.1) and PRISM software (GraphPad).
Here, APR represents the intrinsic anisotropy of the protein:RNA complex in the absence of tested compounds, AR is the anisotropy of the RNA ligand in the absence of protein, [drug] is the concentration of each tested compound, and h is the Hill slope.

hnRNP A18 [3] = molecular target: T2, hnRNP A18; experiment: RNA band shift (EMSA) with His-hnRNP A18 and biotinylated hnRNP A18 RNA motif 1; format: binding; parameters: recombinant full length His-hnRNP A18 incubated with biotinylated hnRNP A18 RNA motif 1; conditions: increasing concentrations of compound
Description: RNA band shifts were performed according to the manufacturer recommendations (LightShift Chemiluminescent RNA EMSA kit, Thermo Scientific, Rockford, Ill.). Briefly recombinant His-hnRNP A18 or His-hnRNP A1 (1 μg) were incubated with biotinylated RNA (hnRNP A18 motif 1, IRE 28 or 51 nucleotides) in 20 μl and run on native polyacrylamide gels transfer to nylon probes and hybridize with streptavidin HRP antibody.

[4] = PAMPA (parallel artificial membrane permeability assay); format: in vitro ADME; conditions: measured at pH 5.0 and 6.8, room temperature, ~4 hours, read-out: Effective permeability Pe
Description: The PAMPA assay was performed by Pion (Billerica, Mass.) on 81 compounds selected out of the 264 compounds showing at least 80% similarity to Compound 1, logP<5.0, and 4DBA closer to 0 (>−4.9). The compounds were dissolved at 10 mM in Dimethyl sulfoxide (DMSO, spectrophotometric grade) and filtered (0.2 μm pore size, hyrodophylic PVDF). The assays were carried in the PAMPA STIRWELL plates (lot A0440) and measured at pH 5.0 and 6.8 at room temperature for ˜4 hours on a PAMPA EVOLUTION instrument.

[5] = tested on: melanoma LOX-IM-VI, colon cancer RKO, Glioblastoma D54, pancreatic cancer MiaPaca, MDA-MD-231 cells; experiment: Cell viability of human cancer cells (Apo-Tox-Glo); format: cell-based; conditions: 24 hrs, increasing concentration
Description: (§1) Cell Viability and Tumor Growth In Vivo
(§2) Cells viability was measured on normal human mammary epithelial cells (HMEC: ATCC, Gaithersburg, Md.) grown as recommended by the manufacturer and human cancer cells including melanoma LOX-IM-VI, colon cancer RKO, Gliobalstoma D54, pancreatic cancer MiaPaca and triple negative breast cancer MDA-MD-231 cells (5) with the Apo-Tox-Glo kit (Promega, Madison, Wis.) as recommended by the manufacturer. The cells were plated (10,000 cells per well) on a 96 well plate and exposed to increasing concentration of chemical probes for 24 hrs and reacted with the viability reagent as recommended. Fluorescence was measured on a plate reader at 400 nm Ex/505 nm Em.

[6] = tested on: normal human mammary epithelial cells (HMEC); experiment: Cell viability of normal human mammary epithelial cells (Apo-Tox-Glo); format: cell-based; conditions: 24 hrs; for Effect on normal cells viability: Compounds 2 and 3 at doses as high as 150 μM
Description: as §1, §2

hnRNP A18 [7] = molecular target: T2, hnRNP A18; experiment: Cellular Engagement Thermal Shift Assay (CETSA) in LOX-IM-VI cells; format: cell-based; parameters: expressed in transfected cells; host or cells: LOX-IM-VI human melanoma cells stably transfected with hnRNP A18-GFP; conditions: 3 hours, heat shock at Tagg(75), read-out: EC50, binding and stabilization of hnRNP A18 in cells
Description: Cellular Thermal Shift Assay (CETSA)
Cellular thermal shift assay (CETSA) was performed with LOX-IM-VI hnRNP
A18 cells cultured in RPMI medium supplemented with 10% FBS. For an initial determination of the melting profile of hnRNP A18, cells dispensed into 96-well PCR plate in the above medium (5000 cells/well/50 μl), were subjected to temperature gradient (40-60° C.) for 10 min. Cold non-denaturing lysis buffer (PBS supplemented with 0.1% TritonX-100 and 1× protease inhibitors) was added to wells, and the plate was rocked and incubated for 15 min on ice. Subsequently, centrifugation was performed at 14.000 rpm to sediment the unstable protein content. Supernatant was collected, and SDS-PAGE gel was run, and immuno-detection was performed using poly-clonal anti-hnRNP A18 antibody (Sigma, CIRP). hnRNP A18 band was quantified on LI-COR C-Digit Blot Scanner, and subsequently Tagg(50) and Tagg(75) values were calculated for hnRNP A18.
In a subsequent run, cells were treated at various doses (80, 40, 20, 10, 5, 2.5 and 1.25 μM) of Compound 2 (Chembridge 7646184), Compound 4 (OTAVA 219853) and Compound 5 (VITAS STK508411) together with DMSO control, for 3 hours. Cells were then subjected to heat shock at Tagg(75) for 10 min, and unstable protein was removed by centrifugation step. Following an immuno-blotting step, bands of stable hnRNP A18 protein was quantified, normalized to loading control and plotted using GraphPad Prism software. EC50 values of Compound 2, Compound 4 and Compound 5 compounds were calculated.

[8] = tested on: hnRNP A18 targeted 3'UTR (Trx); experiment: CAT-Trx 3'UTR reporter assay (CAT ELISA) in LOX-IM VI cells; format: cell-based, human; conditions: increasing amounts of drugs, next day
Description: CAT-ELISA was performed as recommended by the manufacturer (Sigma-Aldrich). Briefly, human melanoma LOX-IM VI cells stably transfected with hnRNP A18-GFP (9) were transiently transfected with a CAT reporter vector harboring Trx 3′UTR (16). Twenty-four hours later the cells were distributed in 6 well plates and treated with increasing amounts of drugs. The next day, the cells were washed, and protein extracted. […] Cleavage of the substrate catalyzed by the peroxidase enzyme was measured on a plate reader at 405 nm.
In order to determine whether hnRNP A18 binding to these compounds disrupted its cellular functions, a cell-based assay was developed as a read out for hnRNP A18 RNA binding activity. A reporter vector harboring a hnRNP A18 targeted 3′UTR (Trx; (16)) downstream of a CAT gene was engineered. Binding of hnRNP A18 to the targeted 3′UTR is expected to stabilize the CAT transcript and increase CAT protein production, which is then measured by ELISA.

Aqueous solubility = format: physicochemical

SMILES | Concentration at which binding disruption of IRP to Iron Responsive Element was observed [1] [mM] | Chemical shift perturbations of hnRNP A18 RRM residues (hnRNP A18 RRM) | IC50 (hnRNP A18 [2]) [µM] | Disruption of hnRNP A18 RNA binding activity by band shift (hnRNP A18 [3]) | Papp [4] [×10⁻⁶ cm/s] | Effect on cancer cells viability [5] | Effect on normal cells viability [6] | EC50 (hnRNP A18 [7]) [µM] | Toxicity to normal cells [6] | Production of CAT protein [8] | Aqueous solubility (Aqueous solubility)
Cc1nc(NC(=O)c2ccccc2)sc1-c1csc(Nc2ccc(O)c(C(=O)O)c2)n1 [Compound 1] | 5.5 | most significant chemical shift perturbations | 6.4 | out-competed hnRNP A18 RNA consensus motif |  |  |  |  |  |  | 
CC(=O)Oc1ccccc1C(=O)Nc1ccccc1Sc1ncnc2scc(-c3ccccc3)c12 [Compound 2] |  |  | 15 | specifically disrupt hnRNP A18 RNA binding activity | > 20 | killing all cancer cell lines tested | without affecting the viability of normal human epithelial cells | 4.7 |  |  | 
CC(=O)Oc1cccc(C(=O)Nc2ccc(C(=O)Nc3nccs3)cc2)c1 [Compound 3] |  |  | 13 | specifically disrupt hnRNP A18 RNA binding activity | > 20 | killing all cancer cell lines tested | without affecting the viability of normal human epithelial cells |  |  |  | 
COc1ccccc1C(=O)Nc1nc(-c2ccc(C)cc2)c(NC(C)=O)s1 [Compound 4] |  |  | 39 | specifically disrupt hnRNP A18 RNA binding activity | > 20 | preferentially killing cancer cells although less efficiently than Compounds 2 and 3 | no significant effect on normal cells viability | 2.7 |  |  | 
Cc1sc(NC(=O)c2ccccc2)nc1OC(=O)c1ccccc1 [Compound 5] |  |  | 2.9 | specifically disrupt hnRNP A18 RNA binding activity | > 20 | least effective |  | 23.8 | 20-40% |  | 
COc1cccc(C(=O)Nc2nc(-c3ccc(C)cc3)c(NC(=O)c3ccco3)s2)c1 [Compound 6] |  |  |  | specifically competed for hnRNP A18 binding activity |  |  |  |  |  | could only reduce CAT protein levels at the highest concentration | Low aqueous solubility
